Data on one molecule can be found in paper PMC8453745, “Human Mass Balance and Metabolite Profiling of [^14C]‐Pamiparib, a Poly (ADP‐Ribose) Polymerase Inhibitor, in Patients With Advanced Cancer” (Clinical Pharmacology in Drug Development, 2021).

Data set [1] in a line: plasma pamiparib pharmacokinetics in patients (LC‐MS/MS). The note with it: for Cmax / half-life: plasma, po. The format is in vivo, human. The text has this:
Part 1 of the study included a screening phase of up to 28 days prior to drug administration to assess eligibility. Patients were admitted to the clinical research unit (CRU) at Royal Liverpool University Hospital (Liverpool, UK)/Clatterbridge Cancer Centre NHS Foundation Trust (Bebington, Wirral, UK) on day −1 and received a single dose of 60‐mg/100 μCi [^14C]‐pamiparib orally the morning of day 1. Patients remained in the CRU until completion of assessments on day 7, when discharge criteria of ≈90% of the radioactive dose being recovered or <1% of the radioactive dose being recovered in urine and feces for 2 consecutive 24‐hour collection intervals were met. If discharge criteria were not met by day 7, patients collected 24‐hour excreta samples up to day 14 on an outpatient basis. Part 2 of the study, evaluating the safety/tolerability and antitumor activity of 60 mg twice‐daily pamiparib in patients with advanced and/or metastatic solid tumors, is ongoing and is not included in this report.
Patients fasted overnight and 2 hours after oral administration of a single 60‐mg dose containing ≈100 μCi (3.7‐3.9 MBq) of [^14C]‐pamiparib with ≈240 mL of room‐temperature water or juice (orange or grape). The residual radioactivity present in each vial postdose was corrected from the dose. The radioactive dose of 100 μCi of [^14C]‐pamiparib provided minimum risk to patients according to the dosimetry calculation from a quantitative whole‐body autoradiography study in male and female Long Evans rats; the dose also provided sufficient signal for total radioactivity counting and quantitative radioprofiling in blood, plasma, and excreta (data on file). Patients were not permitted to lie in the supine position for 2 hours after drug administration, except if required because of an adverse event (AE) and/or study procedure.
(§1) Total radioactivity was analyzed at Covance Laboratories (Harrogate, North Yorkshire, UK), and metabolite profiling was conducted at Covance Laboratories (Madison, Wisconsin). Determination of pamiparib concentrations in plasma and total radioactivity in plasma and whole blood was performed predose and 0.25, 0.5, 1, 1.5, 2, 2.5, 3, 6, 12, 24, 48, 72, 96, 120, and 144 hours postdose. Pamiparib concentrations in plasma and urine were determined at Covance Laboratories (Salt Lake City, Utah) with validated liquid chromatography‐tandem mass spectrometry (LC‐MS/MS) methods.
An aliquot of human plasma (25 μL) containing dipotassium ethylenediaminetetraacetic acid as anticoagulant or urine (25 μL) was added with the internal standard (20.0 μL of 400 ng/mL BGB‐326) in water:ACN (50:50 v/v) followed by the addition of water:ACN (50:50 v/v, 20.0 μL). The plasma samples were centrifugated and vortexed followed by the addition of 200 μL of 5% NH4OH and 100 μL of water. After centrifugation, the supernatant (50 μL) was loaded to Biotage Isolute supported liquid extraction plate (Biotage, Holliston, Massachusetts) and eluted with methyl tert‐butyl ether (700 μL). The eluted samples were dried down at 45°C in TurboVap for 30 minutes and reconstituted in 400 μL of water:MeOH (80:20 v/v), followed by LC‐MS/MS analysis. The urine samples were centrifuged and vortexed followed by the addition of 200 μL of ACN. After centrifugation, 100 μL of the samples was transferred to a plate followed by the addition of 300 μL of water. The samples were centrifugated again before LC‐MS/MS analysis. The LC‐MS/MS instrumentation was the same for plasma and urine analysis including a LEAP autosampler (LEAP Technologies, Chapel Hill, North Carolina), a Shimadzu SCL‐10A controller with LC‐10AD pump (Shimadzu, Columbia, Maryland), and a Sciex API 5000 mass spectrometer (Sciex, Framingham, Massachusetts) equipped with a XBridge Phenyl column (2.1 × 50 mm, 5 μm; Waters, Pleasanton, California). The mobile phase A is 10 mM ammonium formate in water, and mobile phase B is MeOH:ACN (50:50 v/v). […]

A short description of data set [2]: unchanged pamiparib in urine and renal clearance (LC‐MS/MS). The format is in vivo, human. As for the experimental part: as §1
An aliquot of human plasma (25 μL) containing dipotassium ethylenediaminetetraacetic acid as anticoagulant or urine (25 μL) was added with the internal standard (20.0 μL of 400 ng/mL BGB‐326) in water:ACN (50:50 v/v) followed by the addition of water:ACN (50:50 v/v, 20.0 μL). […]
Standard PK parameters of pamiparib in plasma as well as total radioactivity in blood and plasma were calculated with noncompartmental methods with Phoenix WinNonlin (version 8.1). Area under the concentration‐time curve (AUC) from time 0 to infinity (AUC0‐∞), AUC from time 0 to last quantifiable concentration (AUC0‐t), Cmax, time postdose at Cmax (tmax), t1/2, and apparent total clearance (CL/F) were calculated. Renal clearance (CLR) was calculated as Ae/AUC, where Ae was the amount of drug excreted in urine.

The conditions of data set [3]: cited from earlier work.
[4] abbreviates: single oral 60 mg/100 μCi, n = 4.
Where [5] appears, read: 60‐mg single dose, n = 11, ref BGB‐290‐AU‐002, NCT02361723.

Several values for one entry are separate records, joined by “and”; a condition that tells them apart may be missing. Identical values can stand only once. Like-named read-outs stand apart in the source and are kept apart here. Bounds are passed on as bounds.

Turning to `C[C@]12CCCN1CC1=NNC(=O)c3cc(F)cc4[nH]c2c1c34` [Pamiparib], the “geometric coefficient of variation of parent AUCs among 4 subjects” value in data set [1] is below 22%. Besides, in data set [1] (human, oral, 60 mg, as printed in discussion, read-out: AUC0‐t, geometric mean (LC‐MS/MS)), the AUC came to 29200 ng·h/mL. For the same molecule, the Cmax in data set [1] (human, 60 mg, single oral 60 mg/100 μCi, n = 4, read-out: Cmax, arithmetic mean (SD)) was determined as 2210 ng/mL; in data set [1] (human, 60 mg, single oral 60 mg/100 μCi, n = 4, read-out: Cmax, geometric mean (CV%)), 2190 ng/mL. The half-life in data set [1] (human, 60 mg, single oral 60 mg/100 μCi, n = 4, read-out: t1/2, arithmetic mean (SD) (converted)) was 29.2 h; in data set [1] (human, 60 mg, single oral 60 mg/100 μCi, n = 4, read-out: t1/2, geometric mean (CV%) (converted)), 28.7 h. Further, the Tmax in data set [1] (human, single oral 60 mg/100 μCi, n = 4, read-out: tmax, median (min, max)) was determined as 2 h. Moreover, in data set [1] (setting [4]), the “CL/F, arithmetic mean (SD)” value was 2.25 (0.55) L/h. Besides, the “CL/F, geometric mean (CV%)” value in data set [1] (setting [4]) is 2.21 (23.2) L/h; in data set [1] (single oral 60 mg/100 μCi, n = 4, listed as pamiparib), “≈ 2.2 L/h and 2.21 L/h”. In addition, in data set [2] (LC‐MS/MS, over the 192‐hour study), the “cumulative percent of pamiparib excreted unchanged in urine, geometric mean” value is “≈ 1.7 % of the administered dose”. Besides, the CL renal in data set [2] (human, urine and plasma, oral, 60 mg, calculated as Ae/AUC, read-out: renal clearance, geometric mean (converted)) was 0.623 mL/min. The “AUC0‐inf, geometric mean” value in data set [3] (setting [5]) is on record as 32 005 ng·h/mL. The “Cmax, geometric mean” value in data set [3] (setting [5]) is listed as 1881 ng/mL. Moreover, the “pharmacokinetic profile (dose linearity)” value in data set [3] (tested dose range 2.5‐120 mg) was “linear”. In addition, in data set [3] (up to 60 mg, patients), the tolerability entry is listed as “generally well tolerated”.

Usually Cmax stands for the highest concentration seen after dosing. In general, Tmax refers to the time from dosing to the highest level.
